Each structure is given as a SMILES string. Active and inactive are the calls of the source. No cut-off for these calls is given here. A value given as a limit tells only on which side of the number the result lay.

The record followed here is ChEMBL document CHEMBL5053540, “Synthesis and biological evaluation of isatin derivatives containing 1,3,4-thiadiazole as potent a-glucosidase inhibitors” (Bioorg Med Chem Lett, 2021).

Test [1] can be described thus: Inhibition of Saccharomyces cerevisiae alpha-glucosidase using pNPG as substrate.
For test [2], the system named is Saccharomyces cerevisiae. The experiment in a line: Non-competitive inhibition of Saccharomyces cerevisiae alpha-glucosidase assessed as decrease in Vmax without affecting Km using varying levels of p-NPG as substrate by Lineweaver-burk plot analysis.
Test [3] is described as follows: Non-competitive inhibition of Saccharomyces cerevisiae alpha-glucosidase assessed as inhibition constant by secondary re-plot of Lineweaver-burk plot analysis.
The subject of test [4] is Saccharomyces cerevisiae. The experiment in a line: Potency index, ratio of resveratrol IC50 to test compound IC50 for inhibition of Saccharomyces cerevisiae alpha-glucosidase using pNPG as substrate.

The IC50 is the midpoint of a concentration-inhibition curve. Read a high IC50 as lower potency. In turn, `COc1ccc(CN2C(=O)/C(=N\Nc3nncs3)c3ccccc32)cc1` showed an IC50 in test [1] of 46 µM. On the same count and under the same terms, the same measure for `O=C1/C(=N\Nc2nncs2)c2ccccc2N1Cc1ccccc1`: 21 µM; for `Cc1cccc(CN2C(=O)/C(=N\Nc3nncs3)c3ccccc32)c1`: 32.3 µM. Still for that read-out and setting: the result for `Cc1ccc(CN2C(=O)/C(=N\Nc3nncs3)c3ccccc32)cc1` reads 29.2 µM; that for `Cc1ccccc1CN1C(=O)/C(=N\Nc2nncs2)c2ccccc21`, 25.1 µM.

Regarding `N#Cc1cccc(CN2C(=O)/C(=N\Nc3nncs3)c3ccccc32)c1`, in test [1], the IC50 is above 200 µM. For orientation: Ki means the dissociation constant of the complex between target and ligand, obtained from inhibition or displacement. As to `O=C1/C(=N\Nc2nncs2)c2ccccc2N1Cc1ccc(Cl)cc1`, the inhibition result in the test with Saccharomyces cerevisiae [2] is “Active”. Further, the Ki in test [3] was 2.76 µM. This compound also returned an IC50 in test [1] of 3.12 µM. Further, in the test with Saccharomyces cerevisiae [4], the Ratio IC50 stood at 7. As to `Oc1ccc(/C=C/c2cc(O)cc(O)c2)cc1` [RESVERATROL], half-maximal inhibition in test [1] (IC50) required 22 µM.

Turning to `O=C1/C(=N\Nc2nncs2)c2ccccc2N1Cc1ccccc1Br`, the IC50 in test [1] was determined as 13.2 µM.

`COc1cccc(CN2C(=O)/C(=N\Nc3nncs3)c3ccccc32)c1` displayed a half-maximal inhibitory concentration (IC50) in test [1] of 42.3 µM. This IC50 is about 3.2-fold higher than that of the compound before. On the same count and under the same terms, the result for `O=C1/C(=N\Nc2nncs2)c2ccccc2N1Cc1ccccc1Cl` reads 8.5 µM; that for `O=C1/C(=N\Nc2nncs2)c2ccccc2N1Cc1ccccc1F`, 18.4 µM; that for `O=C1/C(=N\Nc2nncs2)c2ccccc2N1Cc1cccc(Cl)c1`, 7.25 µM. On the same count and under the same terms, the result for `N#Cc1ccccc1CN1C(=O)/C(=N\Nc2nncs2)c2ccccc21` reads above 200 µM.
